Reference: ChEMBL document CHEMBL1138593, “Structural modification of 3-arylisoquinolines to isoindolo[2,1-b]isoquinolinones for the development of novel topoisomerase 1 inhibitors with molecular docking study” (2009)
The source made the active and inactive calls. The calls are words filed in the database; no cut-off is given here.

Tests used:
[1] = system: A549; assay: Cytotoxicity against human A549 cells by sulforhodamine B assay; type: functional
[2] = species: Bos taurus; assay: Inhibition of calf thymus DNA topoisomerase 1 assessed as relaxation of supercoiled Escherichia coli pBR322 DNA at 100 ug/mL after 30 mins by agarose gel electrophoresis
[3] = system: HCT-15; assay: Cytotoxicity against human HCT15 cells by sulforhodamine B assay; type: functional
[4] = system: SK-OV-3; assay: Cytotoxicity against human SKOV3 cells by sulforhodamine B assay; type: functional

| Compound | Activity [1] [µg/mL] | topoisomerase 1 inhibition (active/not active) [2] | Activity [3] [µg/mL] | Activity [4] [µg/mL] |
| --- | --- | --- | --- | --- |
| Cc1ccc2cc3n(c(=O)c2c1)Cc1ccccc1-3 | 41.44 | Active | 35.27 | 48.92 |
| COCOCc1cc(OC)c(OC)cc1-c1cc2ccccc2c(=O)[nH]1 | 16.04 | – | 24.7 | 12.68 |
| Cc1ccc2c(=O)[nH]c(-c3ccccc3CO)cc2c1 | 3.66 | – | 3.34 | 8.22 |
| COCOCc1cc(OC)ccc1-c1cc2cc(C)ccc2c(=O)[nH]1 | 80.22 | – | 29.26 | 31.26 |
| O=c1[nH]c(-c2ccccc2CO)cc2ccccc12 | 6.89 | – | 3.88 | 21.98 |
| COCOCc1cc(OC)ccc1-c1cc2ccccc2c(=O)[nH]1 | 32.98 | – | 21.84 | 17.06 |
| COc1cc2c(cc1OC)-c1cc3cc(C)ccc3c(=O)n1C2 | 49.09 | inactive | 34.98 | 36.15 |
| COc1cc(CO)c(-c2cc3ccc(C)cc3c(=O)[nH]2)cc1OC | 15.15 | – | 22.45 | 0.67 |
| COc1cc(CO)c(-c2cc3ccccc3c(=O)[nH]2)cc1OC | 7.32 | – | 19.68 | 12.58 |
| Cc1ccc2cc(-c3ccccc3CO)[nH]c(=O)c2c1 | 12.78 | – | 23.11 | 0.22 |
| CC[C@@]1(O)C(=O)OCc2c1cc1n(c2=O)Cc2cc3ccccc3nc2-1 [CAMPTOTHECIN] | 0.072 | Active | 0.089 | 0.035 |
| COc1ccc(COCc2ccccc2-c2cc3cc(C)ccc3c(=O)[nH]2)cc1 | 7.44 | – | 13.27 | 2.37 |
| COc1cc(CO)c(-c2cc3cc(C)ccc3c(=O)[nH]2)cc1OC | 22.1 | – | 7.17 | 7.8 |
| COc1ccc(-c2cc3ccc(C)cc3c(=O)[nH]2)c(CO)c1 | 10.11 | – | 7.39 | 9.69 |
| Cc1ccc2c(=O)n3c(cc2c1)-c1ccccc1C3 | 15.94 | Active | 46.35 | 44.12 |
| COc1ccc2c(c1)Cn1c-2cc2ccc(C)cc2c1=O | 45.12 | inactive | 34.33 | 15.34 |
| COc1cc2c(cc1OC)-c1cc3ccccc3c(=O)n1C2 | 36.75 | inactive | 9.12 | 12.69 |
| COc1ccc2c(c1)Cn1c-2cc2cc(C)ccc2c1=O | 5.95 | inactive | 8.78 | 5.52 |
| COc1ccc2c(c1)Cn1c-2cc2ccccc2c1=O | 9.25 | Active | 7.29 | 12.01 |
| COCOCc1cc(OC)ccc1-c1cc2ccc(C)cc2c(=O)[nH]1 | 66.52 | – | 40.05 | 23.08 |
| COCOCc1cc(OC)c(OC)cc1-c1cc2ccc(C)cc2c(=O)[nH]1 | 25.02 | – | 31.13 | 28.22 |
| COCOCc1cc(OC)c(OC)cc1-c1cc2cc(C)ccc2c(=O)[nH]1 | 43.65 | – | 34.55 | 34.54 |
| COc1ccc(COCc2ccccc2-c2cc3ccccc3c(=O)[nH]2)cc1 | 26.56 | – | 17.39 | 24.66 |
| COc1ccc(-c2cc3cc(C)ccc3c(=O)[nH]2)c(CO)c1 | 19.43 | – | 4.28 | 14.59 |
| COc1ccc(-c2cc3ccccc3c(=O)[nH]2)c(CO)c1 | 3.65 | – | 0.21 | 0.37 |
| COc1ccc(COCc2ccccc2-c2cc3ccc(C)cc3c(=O)[nH]2)cc1 | 3.33 | – | 4.15 | 4.76 |
| O=c1c2ccccc2cc2n1Cc1ccccc1-2 | 3.7 | Active | 43.93 | 14.84 |
| COc1cc2c(cc1OC)-c1cc3ccc(C)cc3c(=O)n1C2 | 24.13 | inactive | 6.56 | 7.23 |
